{"source": "patent EP3661951B1", "about": "“GENES AND METHODS FOR BIOTECHNOLOGICAL PRODUCTION AND COMPARTMENTALIZATION OF HIGH ADDED VALUE APOCAROTENOIDS” (Agenzia Nazionale Per Le Nuove Tecnologie, L'Energia E Lo …, priority 2017, dated 2019)", "key": {"[1]": {"test_system": "Crocus sativus CsABCC1 transporter (SEQ ID NO 12)", "assay": "In vitro transport assay (\"transportomics\") with yeast microsomes, inhibition by Probenecid", "format": "biochemical", "settings": "Probenecid 1 mM, microsomes pre-incubated 10 minutes at room temperature; saffron hydroalcoholic extract as substrate; net ATP-dependent transport after 15 minutes; S. cerevisiae ybt1 microsomes", "description": "(§1) A new in vitro assay was prepared, differing from the classical transportation assay wherein the vesicles are left to incubate for pre-established periods of time with the putative substrate, washed, lysed and the content analysed by liquid chromatography coupled to a UV/visible detector. With respect to the works existing in literature relating the in-vitro functional characterization of transporters, the present invention introduces the concept of \"transportomics\": the assay is based upon the transportation analysis, performed by LC-HRMS, of all molecules existing in the saffron extract. This approach, providing the use of a raw extract instead of commercial purified standards, allows to characterize the transportation even of molecules which are not commercially available; moreover, as it is based upon data obtained with high resolution mass spectrometry, rather than with photodiode series detector (PDA), the system is extremely sensitive and it allows to appreciate the transportation of low abundant metabolites.\n(§2) With this method, then, it was observed that the two ABCC transporters are capable of transporting different crocins apart from some flavonoids (figure 10b, black bars). […]"}, "[2]": {"test_system": "Crocus sativus CsABCC2 transporter (SEQ ID NO 14)", "assay": "In vitro transport assay (\"transportomics\") with yeast microsomes, inhibition by Probenecid", "format": "biochemical", "settings": "Probenecid 1 mM, microsomes pre-incubated 10 minutes at room temperature; saffron hydroalcoholic extract as substrate; net ATP-dependent transport after 15 minutes; S. cerevisiae ybt1 microsomes", "description": "as §1, §2"}}, "data": [{"smiles": "CCCN(CCC)S(=O)(=O)c1ccc(C(=O)O)cc1", "note": "[Probenecid]", "values": [{"measurement": "transportation of saffron metabolites (crocins) in presence of Probenecid inhibitor", "setting": "[1]", "result": "considerable transportation reduction"}, {"measurement": "transportation of saffron metabolites (crocins) in presence of Probenecid inhibitor", "setting": "[2]", "result": "considerable transportation reduction"}]}]}
